Paper PMC12196476, “New Nitrogen-, Oxygen-, and Sulfur-Containing Heterocyclic Compounds as Anti-Colon Cancer Agents: Synthesis, Multitargeted Evaluations, Molecular Docking Simulations and ADMET Predictions” (Pharmaceuticals, 2025)

Legend:
[1] = test system: LoVo colon carcinoma cells; assay: Cell viability, LDH release assay, LoVo; settings: 48 h; for viability at 100 µg/mL / IC50: Homo sapiens, LoVo; for viability at 100 µg/mL: read-out: Mean % of viable cells ± SD, LoVo, 100 µg/mL, 48 h, LDH release assay; for IC50: read-out: Mean IC50 Values in µM ± SD, LoVo cells
Method: (§1) The studied compounds were also screened for their cytotoxic effects on HCT-116 and LoVo colon carcinoma cells, as well as normal HUVECs, using the standard LDH assay at a concentration of 100 µg/mL.
(§2) The antiproliferative activities of the newly synthesized compounds 3a–e, 8, 9a–c, 13, 14, 17, 18a–h, 20, 22, 23 and 25 were examined on human colon HCT-116 and LoVo cell lines as well as HUVEC (American Type Culture Collection, Manassas, VA, USA). […]
(§3) S3.2.4. Cell culture and viability assay.
(§4) The cytotoxic activities of the newly synthesized compounds (3a-e, 8, 9a-c, 13, 14, 17, 18a-h, 20, 22,
(§5) 23, and 25) were examined on human colon cancer cell lines HCT-116 and Lovo (American Type
(§6) Culture Collection, USA). Various concentrations (50, 100, 200, and 400 μg/mL) of test compounds
(§7) were prepared in Dulbecco’s Modified Eagles Medium (PAN-Biotech, Barcelona, Spain),

[2] = DPPH radical scavenging assay; settings: three independent experiments; read-out: Mean IC50 (mM) for initial DPPH radicals ± SD
Method: The antioxidant activities of the studied compounds were assessed using the 1,1-diphenyl-2-picrylhydrazyl (DPPH) radical scavenging method as detailed by Bersuder et al.. The results were expressed as IC50 (mM)—the concentration of the test compound required to neutralize 50% of DPPH radicals.
The antioxidant efficiencies of target compounds were determined using the 1,1-diphenyl-2-picrylhydrazyl (DPPH) radical scavenging method as detailed by Bersuder et al.. […]
S3.2. Evaluation of Biological Activities.
S3.2.1. In vitro DPPH radical scavenging assay.
The antioxidant efficiencies of compounds—3a−e, 8, 9a−c, 13, 14, 17, 18a−h, 20, 22, 23, and 25—were
determined using the 1,1-diphenyl-2-picrylhydrazyl (DPPH) radical scavenging method as
detailed by Bersuder et al.. Fundamentally, the purple color of the stabilized DPPH radical
fades in the presence of an antioxidant, thus, the change of absorbance can be followed
spectrophotometrically at 519 nm. In the assay, equal volumes (0.5 mL) of DPPH ethanolic solution
and each compound (0-2 mg/mL in DMSO) or butylated hydroxytoluene (BHT) as the reference
were mixed well by shaking. The negative control consisted of the same amount of DMSO and
DPPH solution. After, incubation all mixtures at room temperature in the dark for one hour, the
absorbance of the residual DPPH radicals was measured at 519 nm using the UV‐vis
spectrophotometer. The DPPH radical scavenging activity of each compound (%) was calculated
Scavenging activity = (1 − Acompound/AControl) * 100, where Acompound and Acontrol the absorbance values
of each tested compound (or BHT) and the negative control, respectively. The half maximal
inhibitory concentration (IC50) for each compound in mg/mL was deduced by graphing the dose-
response curve relating the scavenging activity (%) to the compound concentration. Data points
represent the mean ± standard deviation (SD) of three independent determinations.

PDK-1 = PDK-1 (Homo sapiens, UniProt Q15118); assay: In vitro PDK-1 inhibition assay (Kinase-Glo luminescent kinase kit); assay type: biochemical; settings: for inhibition at 100 µg/mL: read-out: Mean Inhibition Percent ± SD, PDK-1
PDK-1, sequence (Q15118 29-436): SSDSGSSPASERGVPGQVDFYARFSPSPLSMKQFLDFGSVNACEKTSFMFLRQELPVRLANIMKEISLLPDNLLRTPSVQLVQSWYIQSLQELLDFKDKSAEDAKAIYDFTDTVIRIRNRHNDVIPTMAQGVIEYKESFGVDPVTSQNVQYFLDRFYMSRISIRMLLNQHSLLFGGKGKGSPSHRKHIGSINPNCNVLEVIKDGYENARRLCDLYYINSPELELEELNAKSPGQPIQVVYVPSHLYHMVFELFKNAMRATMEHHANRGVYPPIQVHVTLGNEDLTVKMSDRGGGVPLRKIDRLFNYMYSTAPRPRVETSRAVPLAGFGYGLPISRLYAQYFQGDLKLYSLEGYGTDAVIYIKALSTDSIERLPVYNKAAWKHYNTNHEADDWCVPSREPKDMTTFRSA
Method: Principally, the PDK-1 inhibitory activities were evaluated using the non-radioactive Kinase-Glo™ Luminescent Kinase Kit (Promega Corporation, Madison, WI, USA) following the instructions of the manufacturer.
S3.2.2. In vitro PDK-1 inhibition assay.
The PDK-1 inhibitory activities of the test compounds were evaluated using the non-radioactive
Kinase-Glo™ Luminescent Kinase kit (Promega Corporation, Madison, WI, USA), following the
manufacturer’s protocol. Briefly, 5 μL of assay buffer—containing 10 × 250 mM Tris-HCl, 50 mM
MgCl2, 5 mM ethyleneglycol-bis(β-aminoethylether)-N,N,N′,N′-tetraacetic acid (EGTA), 10 mM
ethylenedi- aminetetraacetic acid (EDTA), and 10 mM dithiothreitol (DTT)—was added to each
well of a 96-well plate, along with 25 μL of distilled water. Subsequently, 5 μL of each test
compound at various concentrations (50, 100, 200 and 300 μg/mL in 1% DMSO) was added to the
respective wells, except for the two control wells, which received 5 μL of either PBS buffer or 1%
DMSO. Then, 5 μL of pyruvate dehydrogenase E1 (PDH E1) protein (10 μM) and 5 μL of ATP
(10 μM) were added to each well. To initiate phosphorylation, 5 μL of PDK-1 (20 μM) in protein
buffer (1 mM MgCl2, 2000 mM KCl, 40 mM K3PO4) was added to all the wells except the control
wells, which received 5 μL of protein buffer instead. The plate was then mixed thoroughly and
incubated at 37 °C for 30 minutes. After incubation, 50 μL of kinase-Glo® reagent was added to each
well, followed by a 10-minute incubation at room temperature with gentle shaking to stabilize the
luminescent signal. Luminescence was then measured using a microplate reader.
The IC50 value—defined as the concentration of a compound required to reduce luminescence by
50%, compared to untreated control wells—was determined for each compound from the
corresponding dose–response curve generated by plotting PDK-1 inhibition (%) versus compound
concentration. Sodium dichloroacetate (SDA, 1000 μM) was used as a reference PDK-1inhibitor. […]

[3] = biological target: recombinant human LDHA protein (Homo sapiens, UniProt P00338); assay: In vitro LDHA inhibitory assay (NADH consumption); assay type: biochemical; settings: for inhibition at 100 µg/mL: read-out: Mean Inhibition Percent ± SD, LDHA
Excerpt: The LDHA inhibitory efficiencies were investigated on Spectramax M2 spectrofluorometer via measuring the amounts of the consumed NADH^40 using an NAD^+/NADH quantification kit. […]
S3.2.3. In vitro LDHA inhibitory assay.
The LDHA inhibitory activity of the test compounds was investigated using Spectramax M2
spectrofluorometer by measuring the amounts of the consumed NADH [42] employing
NAD+/NADH quantification kit. Briefly, the assay medium containing various concentrations of
each test compound (50, 100, 200 and 300 μg/mL) was incubated in assay medium composed of 20
mM of HEPES-K+ buffer (pH 7.2), 20 μM of NADH, 2 mM of pyruvate and 10 ng of purified
recombinant human LDHA protein for 10 min utes. The activity of LDHA would result in reduction
of pyruvate into lactate with concomitant oxidation of NADH to NAD +. Since NADH (reduced
LDHA, could be inversely quantified by monitoring the change in the intensity of the fluorescence
at 340 nm over a 10-minute period. The rate of the fluorescence change (slope) in treated samples
was compared to that obtained from negative control experiment (100 % enzymatic activity) to
determine the percentage of inhibition. The IC50 value—defined as the compound concentration
required to reduce the luminescence by 50%, compared to untreated control wells—was
determined for each compound from the corresponding dose–response curve generated by
plotting LDHA inhibition (%) against compound concentration.
was used as the reference LDHA inhibitor. […]

[4] = test system: HCT-116 colon carcinoma cells; assay: Cell viability, LDH release assay, HCT-116; settings: for viability at 100 µg/mL / IC50: Homo sapiens, HCT-116, 48 h; for viability at 100 µg/mL: read-out: Mean % of viable cells ± SD, HCT-116, 100 µg/mL, 48 h, LDH release assay; for IC50: read-out: Mean IC50 Values in µM ± SD, HCT-116 cells
Method: as §1, §2, §3, §4, §5, §6, §7

HUVECs = assay: Cell viability, LDH release assay, normal HUVECs; settings: 100 µg/mL, 48 h
Method: as §1, §2
(§8) medium served used as negative and positive controls, respectively. Percentages of viable cells […]
(§9) were calculated based on relative optical density (OD) values (at 550 nm) for compound-treated […]
(§10) wells (final concentration of 100 μg/mL), compared to the negative control, and expressed as mean value (%) ± SD from two replicates. Graphing dose-response curves representing the compound […]
(§11) concentration versus the percentages of viable cells was also conducted to deduce the half - […]
(§12) Additionally, the safety profiles of the studied compounds were assessed against normal cells […]
(§13) (HUVECs) at final concentration of 100 μg/mL . HUVECs were grown in Dulbecco’s Modified Eagle’s Medium supplemented with 10% FBS, 2 mM glutamine (Sigma Aldrich), 100 units/mL penicillin and […] streptomycin (Life Technologies; Paisley, UK). […]

[5] = Cell viability, LDH release assay, normal HUVECs; settings: human, normal HUVECs, Mean % of viable cells ± SD, HUVEC
Method: as §1, §2, §8, §9, §10, §11, §12, §13

IC50 [2]	IC50 [1]	inhibition at 100 µg/mL (PDK-1; 100 µg/mL, three replicates)	inhibition at 100 µg/mL ([3]; 100 µg/mL, three replicates)	IC50 [4]	IC50 (PDK-1; three independent experiments, read-out: Mean IC50 µM ± SD, PDK-1)	IC50 ([3]; three independent experiments, read-out: Mean IC50 µM ± SD, LDHA)	Molecule	Mean % of viable cells ± SD, LoVo ([1]; 100 µg/mL, LDH release assay)	Mean Inhibition Percent ± SD, PDK-1 (PDK-1; 100 µg/mL, three replicates)	Mean Inhibition Percent ± SD, LDHA ([3]; 100 µg/mL, three replicates)	Mean % of viable cells ± SD, HCT-116 ([4]; 100 µg/mL, 48 h, LDH release assay)	Mean % of viable cells ± SD, HUVEC (HUVECs)	viability at 100 µg/mL [1]	viability at 100 µg/mL [4]	viability at 48 h, 100 µg/mL [5]
1.38 ± 0.039 mM	132 ± 7.4 µM	66.7 ± 1.53%	16.6 ± 0.78%	210 ± 2.42 µM	–	–	COc1cc(OC)c(/C=N/n2c(C)nc3cc(OC)c(OC)cc3c2=O)c(OC)c1 [Compound 18a, (E)-6,7-Dimethoxy-2-methyl-3-((2,4,6-trimethoxybenzylidene)amino)quinazolin-4(3H)-one]	–	–	–	–	–	48.3 ± 2.83%	40.7 ± 4.16%	85 ± 1%
0.307 ± 0.01 mM	277 ± 0.21 µM	91 ± 2.83%	5.75 ± 0.35%	302 ± 10.5 µM	169 ± 1.81 µM	1060 ± 7.64 µM	CCOC(=O)Nn1c(C)nc2cc(OC)c(OC)cc2c1=O [Compound 17, Ethyl (6,7-Dimethoxy-2-methyl-4-oxoquinazolin-3(4H)-yl)carbamate]	–	–	–	–	–	10.5 ± 0.71%	20.5 ± 2.12%	96 ± 2.56%
0.89 ± 0.039 mM	–	31.2 ± 3.18%	28.3 ± 1.84%	–	–	–	Oc1ccc2ccccc2c1/C=N/c1ncnc2sc3c(c12)CCCC3 [Compound 3e, (E)-1-(((5,6,7,8-Tetrahydrobenzo[4,5]thieno[2,3-d]pyrimidin-4-yl)imino)methyl) naphthalene-2-ol]	–	–	–	–	–	62.3 ± 2.52%	57 ± 1.73%	96.7 ± 1.16%

Molecule	IC50 [2]	IC50 [1]	inhibition at 100 µg/mL (PDK-1; 100 µg/mL, three replicates)	inhibition at 100 µg/mL ([3]; 100 µg/mL, three replicates)	IC50 [4]	IC50 (PDK-1; three independent experiments, read-out: Mean IC50 µM ± SD, PDK-1)	IC50 ([3]; three independent experiments, read-out: Mean IC50 µM ± SD, LDHA)	Mean % of viable cells ± SD, LoVo ([1]; 100 µg/mL, LDH release assay)	Mean Inhibition Percent ± SD, PDK-1 (PDK-1; 100 µg/mL, three replicates)	Mean Inhibition Percent ± SD, LDHA ([3]; 100 µg/mL, three replicates)	Mean % of viable cells ± SD, HCT-116 ([4]; 100 µg/mL, 48 h, LDH release assay)	Mean % of viable cells ± SD, HUVEC (HUVECs)	viability at 100 µg/mL [1]	viability at 100 µg/mL [4]	viability at 48 h, 100 µg/mL [5]
N-(3-(2-(1-(2-((2,4-Dimethylphenyl)amino)-2-oxoethyl)-2-oxoindolin-3-ylidene)hydrazinyl)-1-(4-hydroxy-3-methoxyphenyl)-3-oxoprop-1-en-2-yl)benzamide [Compound 25]	0.162 ± 0.023 mM	–	–	–	–	–	–	71.50 ± 3.54%	13.30±1.84%	40.50 ± 3.54%	79.00 ± 2.83%	87.94 ± 2.33%	–	–	–
